Columns and labels:
[1] = test system: human dermal fibroblasts (HDF); assay: LDH activity in cell culture solution of human fibroblasts; assay type: cell-based; details: young and replicative senescent fibroblasts; 4 days
Experimental: (§1) Cytotoxicity against young and senescent cells was investigated with a lactate dehydrogenase (LDH) activity kit (Dojindo Molecular Technologies Inc.).
(§2) Young cells (1×10^3 cells/100 μl/well) or senescent cells (2×10^3 cells/100 μl/well) were dispensed into a 96-well plate, and then cultured overnight in a 37° C., 5% CO2 incubator. Zotarolimus and ABT263 were treated at each concentration, and then incubated for 4 days in a 37° C., 5% CO2 incubator.
(§3) After transferring the cell culture solution to a 1.5 ml tube, it was centrifuged at 4° C. and 12,000 rpm. 100 μl of the supernatant was dispensed into a 96-well plate, and 100 μl of the LDH measurement solution was added to each well, followed by reaction in a CO2 incubator for 30 minutes.
(§4) 50 μl of the LDH reaction stop solution was added, and absorbance was measured at 490 nm using a microplate reader. The level of LDH activity was expressed as a relative value based on the absorbance of the control group treated with only DMSO.
From the above results, in order to confirm whether the decrease in cell growth caused by zotarolimus was due to cell death or simply because the growth stopped, LDH activity was investigated in the cell culture solution.

[2] = test system: human umbilical vascular endothelial cells (HUVEC); assay: SAβG activity staining in senescent vascular endothelial cells; assay type: cell-based; details: 4 days
Experimental: Each cell was treated in a serum-free culture solution containing 0.5 μM doxorubicin for 4 hours. After washing the cells with a serum-free culture solution, the cells were cultured for 4 days in a culture solution containing 10% FBS, and then cellular aging was confirmed by staining with senescence-associated beta galactosidase (SAβG). After dispensing 2×10^5 cells in a 100 mm culture dish, they were cultured in a 37° C., 5% CO2 incubator. When the cells grew to 80-90% in the culture dish, the cells were removed by treatment with trypsin-EDTA, and the number of cells was measured, and the cell population doubling time (PDT) was measured. By successively subculturing the cells in the same process as described above, replication aging was induced. PDT of young fibroblasts was 36 hours, PDT of replicative senescent fibroblasts was 12 days, PDT of young vascular endothelial cells was 24 hours, and PDT of replicative senescent vascular endothelial cells was 7 days. After each sample was dissolved in DMSO, young cells, replicative senescent cells, and premature senescent cells treated with doxorubicin were treated with 100 nM zotarolimus, 100 nM rapamycin, 100 nM ABT263, respectively. After incubation for 4 days in a 37° C., 5% CO2 incubator, the degree of cell growth was confirmed by CCK-8 analysis, the degree of cellular aging was confirmed by senescence-related beta-galactosidase (SAβG) staining, The cells were washed with 1× phosphate buffer solution, and fixed with a phosphate buffer solution containing 3.7% (v/v) paraformaldehyde. After adding 1 mg/ml 5-bromo-4-chloro-3-indolyl-6-D-galactoside, 40 mM citric acid-sodium phosphate (pH 6.0), 5 mM potassium ferricyanide, 5 mM potassium ferrocyanide, 150 mM NaCl, and 2 mM MgCl2 solution, it was reacted at 37° C. for 18 hours. It was stained with eosin as a control stain. Cells stained blue in the cytoplasm were identified using an optical microscope. […]

[3] = test system: human retinal pigmented epithelial cells (ARPE-19); assay: LDH activity analysis in retinal pigmented epithelial cells; assay type: cell-based; details: young and senescent retinal pigmented epithelial cells
Experimental: as §1, §2, §3, §4

[4] = test system: pulmonary fibrosis induced by bleomycin; assay: Lung fibrosis induced by bleomycin in mice; assay type: in vivo, C57BL/6J mice
Experimental: Animal experiments were conducted with the approval of the Animal Experimental Ethics Committee, Yeungnam University College of Medicine (YUMC-AEC2018-025). After anesthetizing by injecting 2.5% avertin (Avertin; 0.025 ml/g) into the abdominal cavity of 10-week-old C57BL/6J male mice, 2 mU/g of bleomycin was instilled into the bronchi and injected into the lungs.
From 5 days after bleomycin administration, 2.5 μl of 10 mM zotarolimus was diluted in 100 μl phosphate buffer solution at intervals of 3 days and injected intraperitoneally 6 times (Zota group).
Three mice were used for each group, and lungs were excised by sacrifice 22 days after bleomycin injection and fixed in 10% formalin solution or stored frozen in liquid nitrogen.
The tissue fixed in 10% formalin solution was embedded with paraffin and cut into 4 μm to prepare a tissue sample. After removing paraffin from the tissue sample, hematoxylin-eosin staining, trichrome staining, and PAS staining were performed.
The degree of fibrosis was measured by analyzing the degree of collagen staining using the i-Solution™ software program (IMT Inc., Canada) after trichrome staining and the degree of cell senescence in tissue samples was investigated by staining lipofuscin with Sudan black B (Viegas M S, et al., European journal of histochemistry: EJH. 2007). The degree of peritoneal fibrosis was confirmed by measuring the submesothelial thickness of the peritoneal mesothelial cell layer using the NIH Image J program.

[5] = i.p. 6 times at 3-day intervals from day 5, vs PBS group

For `CO[C@H]1C[C@@H]2CC[C@@H](C)[C@@](O)(O2)C(=O)C(=O)N2CCCC[C@H]2C(=O)O[C@H]([C@H](C)C[C@@H]2CC[C@H](n3cnnn3)[C@H](OC)C2)CC(=O)[C@H](C)/C=C(\C)[C@@H](O)[C@@H](OC)C(=O)[C@H](C)C[C@H](C)/C=C/C=C/C=C/1C` [zotarolimus], the “LDH activity in the cell culture medium” value [1] was “no difference in LDH activity”, the “SAβG activity staining compared with rapamycin” value ([2]; premature senescent HUVEC by doxorubicin, 100 nM each) was “significantly decreased than rapamycin” and the SAβG activity staining ([2]; premature senescent HUVEC by doxorubicin, 100 nM, vs DMSO-treated group, p<0.01) was “significantly decreased”. The SAβG activity ([2]; replicative senescent HUVEC, 100 nM, vs DMSO-treated group and rapamycin-treated group) was “significantly decreased”, the “cytotoxicity by LDH activity analysis” value [3] was “cytotoxicity specific to senescent cells did not appear” and the weight gain ([4]; before induction vs 20th day, vs NT group) was “significantly decreased”. For the same molecule, the “degree of lung fibrosis (trichrome staining)” value [4, 5] was “statistically significantly reduced”, the “degree of lung tissue damage (hematoxylin-eosin staining)” value [4, 5] was “statistically significantly reduced” and the weight ([4]; vs PBS group) was “further increased compared to that of the PBS group”.
